Here are results for 15 molecules from ChEMBL document CHEMBL3632480, “Optimization of an indazole series of selective estrogen receptor degraders: Tumor regression in a tamoxifen-resistant breast cancer xenograft” (Bioorg Med Chem Lett, 2015).

Active and inactive are the calls of the source. The calls are words filed in the database; no cut-off is given here.

Data set [1] concerns MCF7. The experiment in a line: Decrease in estrogen receptor alpha level in human MCF7 cells after 4 hrs by in-cell western assay. The format is functional, cell-based. The settings on record: MCF7, 4 h.
Data set [2] deals with MCF7. The experiment in a line: Decrease in estrogen receptor alpha level in human MCF7 cells 2 to 10 uM after 4 hrs by in-cell western assay. The format is functional. The settings on record: MCF7, 4 h.
In data set [3] the test system is MCF7. The experiment in a line: Cytotoxicity against human MCF7 cells assessed as decrease in cell viability after 5 days by celltiterGlo assay. The settings on record: MCF7, 120 h. The format is functional, cell-based. (Cellular ATP, detected with luciferase, serves as a proxy for viable cell number.)
Data set [4] deals with MCF7. The experiment in a line: Decrease in estrogen receptor alpha level in human MCF7 cells after 4 hrs by in-cell western assay relative to fulvestrant. The format is functional. The settings on record: MCF7, 4 h.
The subject of another data set is Rattus norvegicus. As to the kind of experiment: Decrease in uterine wet weight of CD-IGS rat at 1 mg/kg, po qd followed 15 mins later administration of 0.1 mg/kg, po 17alpha-ethynylestradiol for 3 consecutive days. The format is functional.
Data set [5] in a line: Fraction unbound in CD-1 mouse plasma by equilibrium dialysis. The format is ADME, cell-free. For orientation: Equilibrium dialysis compares concentrations on both sides of a semipermeable membrane.
Data set [6] is described as follows: AUC in CD-1 mouse at 10 mg/kg, po. The format is ADME, organism-based. The settings on record: in vivo.
Data set [7] has as its system MCF7. The experiment in a line: Antitumor activity against human MCF7 cells xenografted in tamoxifen-resistant nu/nu mouse model implanted with 17beta-estradiol pellets assessed as tumor regression at 30 mg/kg qd for 4 weeks. It counts as functional, organism-based. A general note: A xenograft is tissue or cells of one species grown in another, often human tumour cells in immunodeficient mice.

With `CC/C(=C(/c1ccc(/C=C/C(=O)O)cc1)c1ccc2[nH]nc(C)c2c1)c1ccccc1`, the concentration for a half-maximal effect (EC50) in the data set on MCF7 [1] worked out at 353 nM. The same molecule gave an Emax in the data set on MCF7 [2] of 86%. For the same molecule, the IC50 with MCF7 [3] was above 1000 nM.
The corresponding values for `CC/C(=C(/c1ccc(/C=C/C(=O)O)cc1)c1cc2cn[nH]c2cc1F)c1ccccc1` are 64 nM, 96% and 47 nM.
For the molecule `CC/C(=C(/c1ccc(/C=C/C(=O)O)cc1)c1ccc2[nH]nc(Cl)c2c1)c1ccccc1`, the concentration giving a half-maximal response (EC50) with MCF7 [1] is 102 nM. In the data set on MCF7 [2], this molecule registered a maximum response (Emax) of 89%. In addition, the IC50 in the data set with MCF7 [3] came to 284 nM.
Turning to `O=C(O)/C=C/c1ccc(/C(=C(\c2ccccc2Cl)C2CCC2)c2ccc3[nH]nc(F)c3c2)cc1`, a half-maximal response with MCF7 [1] (EC50) required 0.4 nM. The Emax in the data set on MCF7 [4] is 90%. In addition, in the data set on MCF7 [3], the IC50 turned out to be 1.1 nM. The “inhibition (INH)” value in the data set on Rattus norvegicus is recorded as 82%. This molecule returned an unbound share (fraction unbound) in data set [5] of 0.003. In data set [6], this molecule returned an AUC of 11100 ng·h/mL.
In the data set with MCF7 [1], `N#Cc1cc(C(F)(F)F)ccc1/C(=C(\c1ccc(/C=C/C(=O)O)cc1)c1ccc2[nH]nc(F)c2c1)C1CCC1` showed a half-maximal effective concentration (EC50) of 0.4 nM. Further, in the data set with MCF7 [4], the Emax was 94%. The IC50 in the data set with MCF7 [3] was 1.2 nM. In addition, in the data set on Rattus norvegicus, the “inhibition (INH)” value worked out at 75%. For the same molecule, the fraction unbound in data set [5] was found to be 0.014. Also, the area under the curve (AUC) in data set [6] worked out at 14600 ng·h/mL. For the same molecule, the result in the data set with MCF7 [7] was Active.
In turn, `CC/C(=C(/c1ccc(/C=C/C(=O)O)cc1)c1cc2cn[nH]c2cc1Cl)c1ccccc1` had a half-maximal effective concentration (EC50) in the data set on MCF7 [1] of 54 nM. The same molecule yielded an Emax in the data set with MCF7 [2] of 87%. Moreover, in the data set on MCF7 [3], the IC50 was 137 nM.
`CS(=O)(=O)c1cc(Cl)ccc1/C(=C(\c1ccc(/C=C/C(=O)O)cc1)c1ccc2[nH]nc(F)c2c1)C1CCC1` had a 50% effective concentration (EC50) in the data set with MCF7 [1] of 0.3 nM. Besides, in the data set on MCF7 [4], the Emax is 91%. Moreover, in the data set on MCF7 [3], the half-inhibitory concentration (IC50) amounted to 0.3 nM. For the same molecule, the “inhibition (INH)” value in the data set on Rattus norvegicus is recorded as 94%. Further, in data set [5], the fraction unbound turned out to be 0.035. In data set [6], the AUC came to 200 ng·h/mL.
`N#Cc1ccc(/C(=C(\c2ccc(/C=C/C(=O)O)cc2)c2ccc3[nH]nc(F)c3c2)C2CCC2)c(Cl)c1` gave a half-maximal effective concentration (EC50) with MCF7 [1] of 0.3 nM. Moreover, the Emax with MCF7 [4] came to 93%. Also, the IC50 in the data set on MCF7 [3] was 0.7 nM. Also, the “inhibition (INH)” value in the data set on Rattus norvegicus worked out at 85%. The molecule also returned a fraction unbound in data set [5] of 0.006. The same molecule yielded an area under the curve (AUC) in data set [6] of 7800 ng·h/mL.
For `COc1ccc(/C(=C(\c2ccc(/C=C/C(=O)O)cc2)c2ccc3[nH]nc(F)c3c2)C2CCC2)c(Cl)c1`, the half-maximal effective concentration (EC50) in the data set on MCF7 [1] is 0.8 nM. In addition, in the data set with MCF7 [4], the Emax is 93%. For the same molecule, the IC50 with MCF7 [3] was 2.4 nM. The “inhibition (INH)” value in the data set with Rattus norvegicus is 90%. In data set [5], this molecule displayed a free fraction (fraction unbound) of 0.001. In data set [6], the AUC came out at 20500 ng·h/mL.
The molecule `N#Cc1cc(F)ccc1/C(=C(\c1ccc(/C=C/C(=O)O)cc1)c1ccc2[nH]nc(F)c2c1)C1CCC1` yielded a concentration giving a half-maximal response (EC50) with MCF7 [1] of 0.3 nM. Moreover, in the data set with MCF7 [4], the Emax came to 92%. Besides, the IC50 with MCF7 [3] amounted to 1.2 nM. In the data set on Rattus norvegicus, the “inhibition (INH)” value is listed as 57%. The molecule further displayed a fraction unbound in data set [5] of 0.021. This molecule also showed an AUC in data set [6] of 760 ng·h/mL.
`CC/C(=C(/c1ccc(/C=C/C(=O)O)cc1)c1cnc2[nH]ncc2c1)c1ccccc1` displayed an EC50 in the data set with MCF7 [1] of 116 nM. The molecule further registered an Emax with MCF7 [2] of 93%. The IC50 in the data set on MCF7 [3] was found to be 302 nM.
On to `CC/C(=C(/c1ccc(/C=C/C(=O)O)cc1)c1cc2cn[nH]c2cn1)c1ccccc1`, for which, in the data set on MCF7 [1], the EC50 amounted to 384 nM. In the data set on MCF7 [2], this molecule gave a maximum response (Emax) of 88%. Moreover, in the data set on MCF7 [3], the IC50 came out at 442 nM.
The molecule `CC/C(=C(/c1ccc(/C=C/C(=O)O)cc1)c1cc2cn[nH]c2cc1C)c1ccccc1` came in with a 50% effective concentration (EC50) in the data set with MCF7 [1] of 272 nM. The same molecule displayed an Emax with MCF7 [2] of 84%. In addition, in the data set with MCF7 [3], the 50% inhibitory concentration (IC50) was found to be 468 nM.
Take `N#Cc1cnccc1/C(=C(\c1ccc(/C=C/C(=O)O)cc1)c1ccc2[nH]nc(F)c2c1)C1CCC1`: the midpoint of the response with MCF7 [1], the EC50, lay at 1.1 nM. The Emax with MCF7 [4] came to 92%. The concentration for half-maximal inhibition (IC50) with MCF7 [3] came out at 3.8 nM. The “inhibition (INH)” value in the data set with Rattus norvegicus was 22%. The molecule also displayed a free fraction (fraction unbound) in data set [5] of 0.1. The AUC in data set [6] was 70 ng·h/mL.
The molecule `O=C(O)/C=C/c1ccc(/C(=C(\c2ncc(C(F)(F)F)cc2Cl)C2CCC2)c2ccc3[nH]nc(F)c3c2)cc1` registered an EC50 in the data set with MCF7 [1] of 1.3 nM. The Emax with MCF7 [4] was determined as 94%. In addition, the IC50 in the data set on MCF7 [3] worked out at 4.4 nM. In addition, the “inhibition (INH)” value with Rattus norvegicus was determined as 77%. The unbound share (fraction unbound) in data set [5] came out at 0.014. Further, the area under the curve (AUC) in data set [6] was found to be 24300 ng·h/mL. The outcome with MCF7 [7] was Active.

Usually EC50 stands for the midpoint of the concentration-response curve. A lower EC50 goes with a more potent agent. In general, Emax refers to the greatest response seen or fitted, relative to the assay's reference. What is called IC50 is the concentration needed to halve the response being measured. As a reminder, the fraction unbound is the share of the substance not bound to proteins or other matrix. A low value points to little free substance. As usually defined, the AUC is the area under the concentration-time curve, a measure of exposure.
